# Results published in PubChem BioAssay (NCI).
#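 Values below derive from 48-hour exposures of cells grown in 96-well plates, with endpoints linearly interpolated between the two concentrations bracketing the appropriate inhibition level. GI50: concentration for 50% inhibition of growth. TGI is the concentration that stops growth completely.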
# Key:
# Experiment in all cases: inhibition of tumour cell growth, NCI panel, 48 h
# HCT-116 colon = tested on: HCT-116 colon
# OVCAR-3 ovarian = tested on: OVCAR-3 ovarian
# SK-MEL-2 melanoma = tested on: SK-MEL-2 melanoma
# HOP-62 NSCLC = tested on: HOP-62 NSCLC
# T-47D breast = tested on: T-47D breast
# CCRF-CEM leukemia = tested on: CCRF-CEM leukemia
# MDA-MB-435 = tested on: MDA-MB-435
# SK-MEL-28 melanoma = tested on: SK-MEL-28 melanoma
# HCC-2998 colon = tested on: HCC-2998 colon
# TK-10 renal = tested on: TK-10 renal
# SF-268 CNS = tested on: SF-268 CNS
# MOLT-4 leukemia = tested on: MOLT-4 leukemia
# KM12 colon = tested on: KM12 colon
# UACC-62 melanoma = tested on: UACC-62 melanoma
# CAKI-1 renal = tested on: CAKI-1 renal
# DU-145 prostate = tested on: DU-145 prostate
# OVCAR-4 ovarian = tested on: OVCAR-4 ovarian
# SF-539 CNS = tested on: SF-539 CNS
# SK-OV-3 ovarian = tested on: SK-OV-3 ovarian
# SNB-75 CNS = tested on: SNB-75 CNS
# MCF7 breast = tested on: MCF7 breast
# K-562 leukemia = tested on: K-562 leukemia
# SW-620 colon = tested on: SW-620 colon
# PC-3 prostate = tested on: PC-3 prostate
# OVCAR-5 ovarian = tested on: OVCAR-5 ovarian
# NCI-H522 lung = tested on: NCI-H522 lung
# SF-295 CNS = tested on: SF-295 CNS
# NCI/ADR-RES ovarian = tested on: NCI/ADR-RES ovarian
# RPMI-8226 leukemia = tested on: RPMI-8226 leukemia
# U251 CNS = tested on: U251 CNS
# RXF 393 renal = tested on: RXF 393 renal
# HT29 colon = tested on: HT29 colon
# EKVX NSCLC = tested on: EKVX NSCLC
# NCI-H460 lung = tested on: NCI-H460 lung
# HCT-15 colon = tested on: HCT-15 colon
# UACC-257 melanoma = tested on: UACC-257 melanoma
# NCI-H226 lung = tested on: NCI-H226 lung
# HS 578T breast = tested on: HS 578T breast
# SK-MEL-5 melanoma = tested on: SK-MEL-5 melanoma
# HL-60(TB) leukemia = tested on: HL-60(TB) leukemia
# A498 renal = tested on: A498 renal
# OVCAR-8 ovarian = tested on: OVCAR-8 ovarian
# BT-549 breast = tested on: BT-549 breast
# MDA-MB-231 breast = tested on: MDA-MB-231 breast
# SNB-19 CNS = tested on: SNB-19 CNS
# NCI-H23 lung = tested on: NCI-H23 lung
# M14 melanoma = tested on: M14 melanoma
# 786-0 renal = tested on: 786-0 renal
# SR leukemia = tested on: SR leukemia
# LOX IMVI melanoma = tested on: LOX IMVI melanoma
# A549 NSCLC = tested on: A549 NSCLC
# SN12C renal = tested on: SN12C renal
# HOP-92 NSCLC = tested on: HOP-92 NSCLC
# ACHN renal = tested on: ACHN renal
# COLO 205 colon = tested on: COLO 205 colon
smiles,measurement,setting,value
C(=C1c2ccccc2-c2ccccc21)c1ccncc1,GI50,HCT-116 colon,3.84 µM
same,TGI,HCT-116 colon,14.3 µM
same,GI50,OVCAR-3 ovarian,2500 nM
same,TGI,OVCAR-3 ovarian,6.75 µM
same,GI50,SK-MEL-2 melanoma,10.6 µM
same,TGI,SK-MEL-2 melanoma,26.4 µM
same,GI50,HOP-62 NSCLC,5.35 µM
same,TGI,HOP-62 NSCLC,24.3 µM
same,GI50,T-47D breast,6.04 µM
same,TGI,T-47D breast,42.5 µM
same,GI50,CCRF-CEM leukemia,5.36 µM
same,TGI,CCRF-CEM leukemia,72.9 µM
same,GI50,MDA-MB-435,1810 nM
same,TGI,MDA-MB-435,4.85 µM
same,GI50,SK-MEL-28 melanoma,10.6 µM
same,TGI,SK-MEL-28 melanoma,24.2 µM
same,GI50,HCC-2998 colon,11.3 µM
same,TGI,HCC-2998 colon,24.5 µM
same,GI50,TK-10 renal,13 µM
same,TGI,TK-10 renal,26.9 µM
same,GI50,SF-268 CNS,6.39 µM
same,TGI,SF-268 CNS,19.8 µM
same,GI50,MOLT-4 leukemia,5.04 µM
same,TGI,MOLT-4 leukemia,35 µM
same,GI50,KM12 colon,3.24 µM
same,TGI,KM12 colon,11.9 µM
same,GI50,UACC-62 melanoma,5.14 µM
same,TGI,UACC-62 melanoma,18.6 µM
same,GI50,CAKI-1 renal,2640 nM
same,TGI,CAKI-1 renal,10.9 µM
same,GI50,DU-145 prostate,8.28 µM
same,TGI,DU-145 prostate,20.9 µM
same,GI50,OVCAR-4 ovarian,12.1 µM
same,TGI,OVCAR-4 ovarian,25.6 µM
same,GI50,SF-539 CNS,5.62 µM
same,TGI,SF-539 CNS,19.4 µM
same,GI50,SK-OV-3 ovarian,6.76 µM
same,TGI,SK-OV-3 ovarian,24.5 µM
same,GI50,SNB-75 CNS,6.5 µM
same,TGI,SNB-75 CNS,24.6 µM
same,GI50,MCF7 breast,3.92 µM
same,TGI,MCF7 breast,14.6 µM
same,GI50,K-562 leukemia,4.35 µM
same,TGI,K-562 leukemia,> 100 µM
same,GI50,SW-620 colon,4.22 µM
same,TGI,SW-620 colon,17.1 µM
same,GI50,PC-3 prostate,13.4 µM
same,TGI,PC-3 prostate,> 100 µM
same,GI50,OVCAR-5 ovarian,13.8 µM
same,TGI,OVCAR-5 ovarian,33.2 µM
same,GI50,NCI-H522 lung,5.78 µM
same,TGI,NCI-H522 lung,20.4 µM
same,GI50,SF-295 CNS,1980 nM
same,TGI,SF-295 CNS,5.28 µM
same,GI50,NCI/ADR-RES ovarian,3.88 µM
same,TGI,NCI/ADR-RES ovarian,16.2 µM
same,GI50,RPMI-8226 leukemia,7.65 µM
same,TGI,RPMI-8226 leukemia,63.4 µM
same,GI50,U251 CNS,3.78 µM
same,TGI,U251 CNS,16 µM
same,GI50,RXF 393 renal,5.69 µM
same,TGI,RXF 393 renal,21.7 µM
same,GI50,HT29 colon,4.06 µM
same,TGI,HT29 colon,13.9 µM
same,GI50,EKVX NSCLC,3.48 µM
same,TGI,EKVX NSCLC,15.4 µM
same,GI50,NCI-H460 lung,3.87 µM
same,TGI,NCI-H460 lung,13.7 µM
same,GI50,HCT-15 colon,4.51 µM
same,TGI,HCT-15 colon,18.9 µM
same,GI50,UACC-257 melanoma,11.6 µM
same,TGI,UACC-257 melanoma,26.7 µM
same,GI50,NCI-H226 lung,11.6 µM
same,TGI,NCI-H226 lung,31.7 µM
same,GI50,HS 578T breast,3.77 µM
same,TGI,HS 578T breast,14.1 µM
same,GI50,SK-MEL-5 melanoma,4.64 µM
same,TGI,SK-MEL-5 melanoma,16.7 µM
same,GI50,HL-60(TB) leukemia,4.33 µM
same,TGI,HL-60(TB) leukemia,22.2 µM
same,GI50,A498 renal,2250 nM
same,TGI,A498 renal,10.7 µM
same,GI50,OVCAR-8 ovarian,7.99 µM
same,TGI,OVCAR-8 ovarian,24.9 µM
same,GI50,BT-549 breast,10 µM
same,TGI,BT-549 breast,22.4 µM
same,GI50,MDA-MB-231 breast,6.75 µM
same,TGI,MDA-MB-231 breast,23.1 µM
same,GI50,SNB-19 CNS,5.81 µM
same,TGI,SNB-19 CNS,19.5 µM
same,GI50,NCI-H23 lung,9.94 µM
same,TGI,NCI-H23 lung,26.6 µM
same,GI50,M14 melanoma,4.39 µM
same,TGI,M14 melanoma,15.7 µM
same,GI50,786-0 renal,8.17 µM
same,TGI,786-0 renal,22.7 µM
same,GI50,SR leukemia,3.34 µM
same,TGI,SR leukemia,50.1 µM
same,GI50,LOX IMVI melanoma,5.19 µM
same,TGI,LOX IMVI melanoma,18.9 µM
same,GI50,A549 NSCLC,4.65 µM
same,TGI,A549 NSCLC,19.3 µM
same,GI50,SN12C renal,7.45 µM
same,TGI,SN12C renal,21.6 µM
same,GI50,HOP-92 NSCLC,11.2 µM
same,TGI,HOP-92 NSCLC,25.4 µM
same,GI50,ACHN renal,10.6 µM
same,TGI,ACHN renal,28 µM
same,GI50,COLO 205 colon,5.32 µM
same,TGI,COLO 205 colon,18.3 µM
